Assay results taken from patent US6107316A, “Method for treating protozoal infections” (priority 1998, dated 2000).
In brackets after ≈: the same amount, converted by molar mass. Where two headings read alike, the source gives them in different places.

Assays:
Giardia lamblia = test: in vitro growth inhibitory activity against Giardia lamblia; format: cell-based; conditions: Giardia duodenalis; concentration required to inhibit growth by 50%
Procedure: 35, pp. 2198-2202 (1991). EC50 values for test compounds, expressed in parts per million (ppm), were calculated from dose response curves and are presented in Table 4. As used herein, the terminology "EC50" means the concentration of test compound required to inhibit growth by 50% are compared to a control lacking the test compound. Metronidazole was included as a standard in the tests for comparative purposes.

Leishmania major = test: in vitro growth inhibitory activity against L. major promastigotes; format: cell-based
Description: 35, pp. 2198-2202 (1991).

Entamoeba histolytica = test: in vitro growth inhibitory activity against E. histolytica; format: cell-based
Description: 35, pp. 2198-2202 (1991). Metronidazole was included as a standard in the test for comparative purposes.

Tetrahymena pyriformis = test: in vitro growth inhibitory activity against the ciliate Tetrahymena pyriformis; format: cell-based, Tetrahymena pyriformis (ATCC strain 30005); conditions: read-out: EC50 Tetrahymena pyriformis
Procedure: Compounds were evaluated for in vitro growth inhibitory activity against the ciliate Tetrahymena pyriformis, which was used as an indicator organism for the Apicomplexia since by several criteria the ciliates and Apicomplexa are closely related (Edlind T. D. et al., Mol. Phylogenet. Evol. vol. 5, pp. 359-367, 1996). T. pyriformis (ATCC strain 30005) was grown in 1 ml ATCC medium 357 at 25° C. in 4 ml polyallomer culture tubes without shaking. Compounds were dissolved in dimethylsufoxide (DMSO) and added to the cultures (containing 3,000 cells/ml) such that the final DMSO concentration was 0.1-0.3%. […] Parasitol. vol. 84, pp. 355-370, 1996) and Cryptosporidium parvum (Arrowood et al., FEMS Microbial. Lett., vol. 136, pp. 245-249, 1996) were tested for comparison.

Toxoplasma gondii [1] = test: growth inhibition of T. gondii in L929 host cells ([3H]-uracil incorporation); format: cell-based; conditions: Toxoplasma gondii
Toxoplasma gondii [2] = test: growth inhibition of T. gondii in HFF host cells ([3H]-uracil incorporation); format: cell-based; conditions: Toxoplasma gondii
[3] = cytotoxicity towards L929 host cells (Cell Titer 96); conditions: mouse, % Inhibition of host cell growth (values in parenthesis)
[4] = cytotoxicity towards HFF host cells (Cell Titer 96); conditions: human, % Inhibition of host cell growth (values in parenthesis)
Cryptosporidium parvum = test: growth inhibitory activity against C. parvum in host MDBKF5D2 cells (immunofluorescence); format: cell-based; conditions: Cryptosporidium parvum, 48 h
[5] = L929, 24 h, L929 host cells, 0.5 μg/ml, 24 hours, read-out: % Inhibition
[6] = L929, 24 h, L929 host cells, 5.0 μg/ml, 24 hours, read-out: % Inhibition
[7] = L929, 48 h, L929 host cells, 0.5 μg/ml, 48 hours, read-out: % Inhibition
[8] = L929, 48 h, L929 host cells, 5.0 μg/ml, 48 hours, read-out: % Inhibition
[9] = L929, 72 h, L929 host cells, 0.5 μg/ml, 72 hours, read-out: % Inhibition
[10] = L929, 72 h, L929 host cells, 5.0 μg/ml, 72 hours, read-out: % Inhibition
[11] = 24 h, HFF host cells, 0.5 μg/ml, 24 hours, read-out: % Inhibition
[12] = 24 h, HFF host cells, 5.0 μg/ml, 24 hours, read-out: % Inhibition
[13] = 48 h, HFF host cells, 0.5 μg/ml, 48 hours, read-out: % Inhibition
[14] = 48 h, HFF host cells, 5.0 μg/ml, 48 hours, read-out: % Inhibition
[15] = 72 h, HFF host cells, 0.5 μg/ml, 72 hours, read-out: % Inhibition
[16] = 72 h, HFF host cells, 5.0 μg/ml, 72 hours, read-out: % Inhibition

Structure (SMILES): CCC(C)(NC(=O)c1cc(Cl)c(N)c(Cl)c1)C(=O)CCl (stereo not drawn) [Compound 1]
- EC50 (Giardia lamblia): 0.06 µg/mL (≈ 0.178 µM)
- EC50 (Leishmania major): 0.2 µg/mL (≈ 0.592 µM)
- EC50 (Entamoeba histolytica): 38 µg/mL (≈ 113 µM)
- EC50 (Tetrahymena pyriformis; 24 hours, 25° C.): 0.02 µg/mL (≈ 0.0592 µM)
- inhibition at 0.5 µg/mL (Toxoplasma gondii [1]; [5]): 7.8%
- inhibition at 5 µg/mL (Toxoplasma gondii [1]; [6]): 10.8%
- inhibition at 0.5 µg/mL (Toxoplasma gondii [1]; [7]): 80.4%
- inhibition at 5 µg/mL (Toxoplasma gondii [1]; [8]): 75.5%
- inhibition at 0.5 µg/mL (Toxoplasma gondii [1]; [9]): 95.4%
- inhibition at 5 µg/mL (Toxoplasma gondii [1]; [10]): 78.2%
- inhibition at 0.5 µg/mL (Toxoplasma gondii [2]; [11]): 47.6%
- inhibition at 5 µg/mL (Toxoplasma gondii [2]; [12]): 88%
- inhibition at 0.5 µg/mL (Toxoplasma gondii [2]; [13]): 96.1%
- inhibition at 5 µg/mL (Toxoplasma gondii [2]; [14]): 99.3%
- inhibition at 0.5 µg/mL (Toxoplasma gondii [2]; [15]): 91.3%
- inhibition at 5 µg/mL (Toxoplasma gondii [2]; [16]): 99.2%
- inhibition at 24 h ([3]; L929, 0.5 μg/ml): 1.5%
- inhibition at 48 h ([3]; L929, 0.5 μg/ml): 11.6%
- inhibition at 72 h ([3]; L929, 0.5 μg/ml): 31.3%
- inhibition at 24 h ([3]; L929, 5.0 μg/ml): 19.7%
- inhibition at 48 h ([3]; L929, 5.0 μg/ml): 61.8%
- inhibition at 72 h ([3]; L929, 5.0 μg/ml): 81.1%
- inhibition at 24 h ([4]; 0.5 μg/ml): 1.6%
- inhibition at 48 h ([4]; 0.5 μg/ml): 0%
- inhibition at 72 h ([4]; 0.5 μg/ml): 1.4%
- inhibition at 24 h ([4]; 5.0 μg/ml): 14.7%
- inhibition at 48 h ([4]; 5.0 μg/ml): 13.5%
- inhibition at 72 h ([4]; 5.0 μg/ml): 47.6%
- inhibition at 0.1 µM (Cryptosporidium parvum): 23.1%
- inhibition at 1 µM (Cryptosporidium parvum): 29.2%
- inhibition at 10 µM (Cryptosporidium parvum): 34.2%
- inhibition at 100 µM (Cryptosporidium parvum; 100 μM): 81.1%

Structure (SMILES): CCC(C)(NC(=O)c1cc(Cl)c(F)c(Cl)c1)C(=O)CCl (stereo not drawn) [Compound 9]
- EC50 (Giardia lamblia): 0.03 µg/mL (≈ 0.0881 µM)
- EC50 (Leishmania major): 0.1 µg/mL (≈ 0.294 µM)
- EC50 (Tetrahymena pyriformis; 24 hours, 25° C.): 0.004 µg/mL (≈ 0.0117 µM)
- inhibition at 0.5 µg/mL (Toxoplasma gondii [1]; [5]): 29%
- inhibition at 5 µg/mL (Toxoplasma gondii [1]; [6]): 28.2%
- inhibition at 0.5 µg/mL (Toxoplasma gondii [1]; [7]): 86.3%
- inhibition at 5 µg/mL (Toxoplasma gondii [1]; [8]): 77.3%
- inhibition at 0.5 µg/mL (Toxoplasma gondii [1]; [9]): 90.9%
- inhibition at 5 µg/mL (Toxoplasma gondii [1]; [10]): 95.6%
- inhibition at 0.5 µg/mL (Toxoplasma gondii [2]; [11]): 58.7%
- inhibition at 5 µg/mL (Toxoplasma gondii [2]; [12]): 74.3%
- inhibition at 0.5 µg/mL (Toxoplasma gondii [2]; [13]): 77.6%
- inhibition at 5 µg/mL (Toxoplasma gondii [2]; [14]): 97%
- inhibition at 0.5 µg/mL (Toxoplasma gondii [2]; [15]): 0%
- inhibition at 5 µg/mL (Toxoplasma gondii [2]; [16]): 96.3%
- inhibition at 24 h ([3]; L929, 0.5 μg/ml): 6.3%
- inhibition at 48 h ([3]; L929, 0.5 μg/ml): 0%
- inhibition at 72 h ([3]; L929, 0.5 μg/ml): 8.5%
- inhibition at 24 h ([3]; L929, 5.0 μg/ml): 20.2%
- inhibition at 48 h ([3]; L929, 5.0 μg/ml): 65.2%
- inhibition at 72 h ([3]; L929, 5.0 μg/ml): 90.4%
- inhibition at 24 h ([4]; 0.5 μg/ml): 1.1%
- inhibition at 48 h ([4]; 0.5 μg/ml): 1.1%
- inhibition at 72 h ([4]; 0.5 μg/ml): 0%
- inhibition at 24 h ([4]; 5.0 μg/ml): 2.4%
- inhibition at 48 h ([4]; 5.0 μg/ml): 21.3%
- inhibition at 72 h ([4]; 5.0 μg/ml): 6.3%
- inhibition at 0.1 µM (Cryptosporidium parvum): 1.8%
- inhibition at 1 µM (Cryptosporidium parvum): 27.9%
- inhibition at 10 µM (Cryptosporidium parvum): 32.8%

Structure (SMILES): CCC(C)(NC(=O)c1cc(Cl)c(C)c(Cl)c1)C(=O)CCl (stereo not drawn) [Compound 10]
- EC50 (Giardia lamblia): 0.06 µg/mL (≈ 0.178 µM)
- EC50 (Leishmania major): 0.2 µg/mL (≈ 0.594 µM)
- EC50 (Entamoeba histolytica): 6 µg/mL (≈ 17.8 µM)
- EC50 (Tetrahymena pyriformis; 24 h): 0.004 µg/mL (≈ 0.0119 µM)
- inhibition at 0.5 µg/mL (Toxoplasma gondii [1]; L929, 24 h): 0%
- inhibition at 5 µg/mL (Toxoplasma gondii [1]; L929, 24 h): 20.5%
- inhibition at 25 µg/mL (Toxoplasma gondii [1]; L929, 24 h): 19.6%
- inhibition at 0.5 µg/mL (Toxoplasma gondii [1]; L929, 48 h): 0%
- inhibition at 5 µg/mL (Toxoplasma gondii [1]; L929, 48 h): 80.5%
- inhibition at 25 µg/mL (Toxoplasma gondii [1]; L929, 48 h): 86.5%
- inhibition at 0.5 µg/mL (Toxoplasma gondii [1]; L929, 72 h): 2.3%
- inhibition at 5 µg/mL (Toxoplasma gondii [1]; L929, 72 h): 90.4%
- inhibition at 25 µg/mL (Toxoplasma gondii [1]; L929, 72 h): 98%
- inhibition at 0.5 µg/mL (Toxoplasma gondii [2]; 24 h): 2.3%
- inhibition at 5 µg/mL (Toxoplasma gondii [2]; 24 h): 8.8%
- inhibition at 25 µg/mL (Toxoplasma gondii [2]; 24 h): 63.4%
- inhibition at 0.5 µg/mL (Toxoplasma gondii [2]; 48 h): 2.1%
- inhibition at 5 µg/mL (Toxoplasma gondii [2]; 48 h): 1.4%
- inhibition at 25 µg/mL (Toxoplasma gondii [2]; 48 h): 95.7%
- inhibition at 0.5 µg/mL (Toxoplasma gondii [2]; 72 h): 6.3%
- inhibition at 5 µg/mL (Toxoplasma gondii [2]; 72 h): 0%
- inhibition at 25 µg/mL (Toxoplasma gondii [2]; 72 h): 97.3%
- inhibition at 24 h ([3]; L929, 0.5 μg/ml): 3.7%
- inhibition at 48 h ([3]; L929, 0.5 μg/ml): 0%
- inhibition at 72 h ([3]; L929, 0.5 μg/ml): 2.2%
- inhibition at 24 h ([3]; L929, 5.0 μg/ml): 2.8%
- inhibition at 48 h ([3]; L929, 5.0 μg/ml): 0%
- inhibition at 72 h ([3]; L929, 5.0 μg/ml): 3.5%
- inhibition at 24 h ([3]; L929, 25.0 μg/ml): 2.2%
- inhibition at 48 h ([3]; L929, 25.0 μg/ml): 4.5%
- inhibition at 72 h ([3]; L929, 25.0 μg/ml): 7.6%
- inhibition at 24 h ([4]; 0.5 μg/ml): 0%
- inhibition at 48 h ([4]; 0.5 μg/ml): 0%
- inhibition at 72 h ([4]; 0.5 μg/ml): 3%
- inhibition at 24 h ([4]; 5.0 μg/ml): 1.4%
- inhibition at 48 h ([4]; 5.0 μg/ml): 7.6%
- inhibition at 72 h ([4]; 5.0 μg/ml): 3.5%
- inhibition at 24 h ([4]; 25.0 μg/ml): 6.7%
- inhibition at 48 h ([4]; 25.0 μg/ml): 9.3%
- inhibition at 72 h ([4]; 25.0 μg/ml): 4.8%
